Experimental data from patent publication US20100022491A1, “4-HYDROXY-2-OXO-2,3-DIHYDRO-1,3-BENZOTHIAZOL-7YL COMPOUNDS FOR MODULATION OF B2-ADRENORECEPTOR ACTIVITY” (ASTRAZENECA AB, priority 2006, published 2010).
Counter-ions that a name gives are not always drawn.

How the values were obtained:
[1] = target: T1, recombinant human adrenergic beta 1 receptors (Homo sapiens, UniProt P08588); experiment: Adrenergic β1 selectivity binding assay ([125I]-Iodocyanopindolol); details: inhibition of [125I]-Iodocyanopindolol (0.036 nM) binding; read-out: β1 bind p IC50 (converted)
T1 construct: purchased Euroscreen
T1 sequence (P08588 whole entry): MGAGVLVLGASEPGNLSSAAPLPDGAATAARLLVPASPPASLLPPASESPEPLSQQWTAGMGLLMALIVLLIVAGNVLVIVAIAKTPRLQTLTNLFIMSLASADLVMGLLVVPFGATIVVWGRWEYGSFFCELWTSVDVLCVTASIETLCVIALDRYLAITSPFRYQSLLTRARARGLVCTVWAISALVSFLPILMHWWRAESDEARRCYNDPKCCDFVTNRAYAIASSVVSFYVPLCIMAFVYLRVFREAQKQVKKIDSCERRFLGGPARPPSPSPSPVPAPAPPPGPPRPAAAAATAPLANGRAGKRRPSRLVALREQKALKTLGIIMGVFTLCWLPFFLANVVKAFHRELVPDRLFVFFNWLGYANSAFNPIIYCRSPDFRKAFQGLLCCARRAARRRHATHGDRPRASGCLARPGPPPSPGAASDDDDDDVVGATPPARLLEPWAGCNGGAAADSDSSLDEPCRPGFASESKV
Experimental: Membranes containing recombinant human adrenergic beta 1 receptors were obtained from Euroscreen. These were diluted in Assay Buffer (50 mM HEPES, 1 mM EDTA, 120 mM NaCl, 0.1% gelatin, pH 7.4) to provide a final concentration of membranes that gave a clear window between maximum and minimum specific binding.
Assays were performed in U-bottomed 96-well polypropylene plates. 10 μL [^125I]-Iodocyanopindolol (0.036 nM final concentration) and 10 μL of test compound (10× final concentration) were added to each test well. For each assay plate 8 replicates were obtained for [^125I]-Iodocyanopindolol binding in the presence of 10 μL vehicle (10% (v/v) DMSO in Assay Buffer; defining maximum binding) or 10 μL Propranolol (10 μM final concentration; defining non-specific binding (NSB)). Membranes were then added to achieve a final volume of 100 μL. The plates were incubated for 2 hours at room temperature and then filtered onto PEI coated GF/B filter plates, pre-soaked for 1 hour in Assay Buffer, using a 96-well plate Tomtec cell harvester. Five washes with 250 μL wash buffer (50 mM HEPES, 1 mM EDTA, 120 mM NaCl, pH 7.4) were performed at 4° C. to remove unbound radioactivity. The plates were dried then sealed from underneath using Packard plate sealers and MicroScint-O (50 μL) was added to each well. The plates were sealed (TopSeal A) and filter-bound radioactivity was measured with a scintillation counter (TopCount, Packard BioScience) using a 3-minute counting protocol.
Total specific binding (B0) was determined by subtracting the mean NSB from the mean maximum binding. NSB values were also subtracted from values from all other wells. […] Data was fitted to a four parameter logistic equation to determine the compound potency, which was expressed as pIC50 (negative log molar concentration inducing 50% inhibition of [^125I]-Iodocyanopindolol binding).

[2] = target: T2, recombinant human α1D receptor (Homo sapiens, UniProt P25100); experiment: Adrenergic α1D selectivity binding assay ([3H]-prazosin); details: inhibition of [3H]-prazosin (0.3 nM) binding, HEK293 membranes; read-out: α1 bind pIC50 (converted)
T2 construct: expressed in transfected cells; host or cells: HEK293
T2 sequence (P25100 1-572): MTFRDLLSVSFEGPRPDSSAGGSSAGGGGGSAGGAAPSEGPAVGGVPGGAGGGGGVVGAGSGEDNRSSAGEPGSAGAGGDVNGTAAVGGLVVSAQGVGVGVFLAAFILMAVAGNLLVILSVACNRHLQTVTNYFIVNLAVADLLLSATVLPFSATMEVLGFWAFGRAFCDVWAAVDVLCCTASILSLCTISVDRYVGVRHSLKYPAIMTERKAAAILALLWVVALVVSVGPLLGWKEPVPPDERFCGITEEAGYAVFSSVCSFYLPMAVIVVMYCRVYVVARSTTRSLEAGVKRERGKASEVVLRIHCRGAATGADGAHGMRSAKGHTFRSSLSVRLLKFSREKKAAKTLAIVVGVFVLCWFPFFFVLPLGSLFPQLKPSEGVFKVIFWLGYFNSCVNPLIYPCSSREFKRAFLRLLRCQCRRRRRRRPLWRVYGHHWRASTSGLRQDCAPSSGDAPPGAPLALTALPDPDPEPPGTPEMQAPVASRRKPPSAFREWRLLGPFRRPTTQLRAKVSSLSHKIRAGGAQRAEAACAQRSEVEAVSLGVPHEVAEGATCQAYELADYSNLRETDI
Procedure, shortened: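 Displacement of [3H]-prazosin (0.3 nM) from recombinant human α1D receptor in HEK293-cell membranes, 2 h at room temperature, pH 7.4 HEPES/EDTA/gelatin buffer. Filtration and scintillation counting, non-specific binding set with 10 μM BMY7378; four-parameter logistic fit gives pIC50.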

| SMILES | IC50 [1] [nM] | IC50 [2] [nM] |
| --- | --- | --- |
| O=C(CCNCCc1cccc(Cl)c1)N(CCNCCc1ccc(O)c2[nH]c(=O)sc12)C1CCC(F)(F)CC1 [Example 47, N^3-[2-(3-Chlorophenyl)ethyl]-N^1-(4,4-difluorocyclohexyl)-N^1-(2-{[2-(4-hydroxy-2-oxo-2,3-dihydro-1,3-benzothiazol-7-yl)ethyl]amino}ethyl)-β-alaninamide bis-trifluoroacetic acid salt] | 1260 | 501 |
| CC(C)(CN(CCNCCc1ccc(O)c2[nH]c(=O)sc12)C(=O)CCNCCc1ccccc1)c1ccccc1 [Example 45, N^1-(2-{[2-(4-Hydroxy-2-oxo-2,3-dihydro-1,3-benzothiazol-7-yl)ethyl]amino}ethyl)-N^1-(2-methyl-2-phenylpropyl)-N^3-(2-phenylethyl)-β-alaninamide bis-trifluoroacetic acid salt] | 1260 | 200 |
| CC(C)(C)CN(CCNCCc1ccc(O)c2[nH]c(=O)sc12)C(=O)CCNCCc1ccccc1 [Example 6, N-(2,2-Dimethylpropyl)-N-(2-{[2-(4-hydroxy-2-oxo-2,3-dihydro-1,3-benzothiazol-7-yl)ethyl]amino}ethyl)-N^3-(2-phenylethyl)-β-alaninamide bis-trifluoroacetic acid salt] | 794 | 126 |
| Cc1cccc(CCNCCC(=O)N(CCNCCc2ccc(O)c3[nH]c(=O)sc23)C2CCCCC2)c1 [Example 14, N-Cyclohexyl-N-(2-{[2-(4-hydroxy-2-oxo-2,3-dihydro-1,3-benzothiazol-7-yl)ethyl]amino}ethyl)-N^3-[2-(3-methylphenyl)ethyl]-β-alaninamide bis-trifluoroacetic acid salt] | 7940 | 158 |
| O=C(CCNCCc1cccc(Cl)c1)N(CCNCCc1ccc(O)c2[nH]c(=O)sc12)C1CCCCC1 [Example 12, N^3-[2-(3-Chlorophenyl)ethyl]-N-cyclohexyl-N-(2-{[2-(4-hydroxy-2-oxo-2,3-dihydro-1,3-benzothiazol-7-yl)ethyl]amino}ethyl)-β-alaninamide bis-trifluoroacetic acid salt] | 3160 | 200 |
| O=C(CCNCCc1ccc(Cl)cc1)N(CCNCCc1ccc(O)c2[nH]c(=O)sc12)C1CCCC1 [Example 28, N^3-[2-(4-Chlorophenyl)ethyl]-N-cyclopentyl-N-(2-{[2-(4-hydroxy-2-oxo-2,3-dihydro-1,3-benzothiazol-7-yl)ethyl]amino}ethyl)-β-alaninamide bis-trifluoroacetic acid salt] | 6310 | 316 |
| CC(C)(CO)CN(CCNCCc1ccc(O)c2[nH]c(=O)sc12)C(=O)CCNCCc1ccccc1Cl [Example 65, N^3-[2-(2-Chlorophenyl)ethyl]-N^1-(3-hydroxy-2,2-dimethylpropyl)-N^1-(2-{[2-(4-hydroxy-2-oxo-2,3-dihydro-1,3-benzothiazol-7-yl)ethyl]amino}ethyl)-β-alaninamide bis-trifluoroacetic acid salt] | 1000 | 100 |
| O=C(CCNCCc1cccc(F)c1)N(CCNCCc1ccc(O)c2[nH]c(=O)sc12)CC12CC3CC(CC(C3)C1)C2 [Example 60, N^1-(1-Adamantylmethyl)-N^3-[2-(3-fluorophenyl)ethyl]-N^1-(2-{[2-(4-hydroxy-2-oxo-2,3-dihydro-1,3-benzothiazol-7-yl)ethyl]amino}ethyl)-β-alaninamide bis-trifluoroacetic acid salt] | 2000 | 316 |
| O=C(CCNCCc1cccc(O)c1)N(CCNCCc1ccc(O)c2[nH]c(=O)sc12)C1CCCCCC1 [Example 37, N-Cycloheptyl-N-(2-{[2-(4-hydroxy-2-oxo-2,3-dihydro-1,3-benzothiazol-7-yl)ethyl]amino}ethyl)-N^3-[2-(3-hydroxyphenyl)ethyl]-β-alaninamide bis-trifluoroacetic acid salt] | 3980 | 200 |
| CC(C)(C)CN(CCNCCc1ccc(O)c2[nH]c(=O)sc12)C(=O)CCNC(C)(C)Cc1ccccc1 [Example 38, N^3-(1,1-Dimethyl-2-phenylethyl)-N-(2,2-dimethylpropyl)-N-(2-{[2-(4-hydroxy-2-oxo-2,3-dihydro-1,3-benzothiazol-7-yl)ethyl]amino}ethyl)-β-alaninamide bis-trifluoroacetic acid salt] | 5010 | 794 |
| O=C(CCNCCc1cccc(F)c1)N(CCNCCc1ccc(O)c2[nH]c(=O)sc12)C1CCCCCC1 [Example 36, N-Cycloheptyl-N^3-[2-(3-fluorophenyl)ethyl]-N-(2-{[2-(4-hydroxy-2-oxo-2,3-dihydro-1,3-benzothiazol-7-yl)ethyl]amino}ethyl)-β-alaninamide bis-trifluoroacetic acid salt] | 3160 | 158 |

Next, values leading:

| IC50 [1] [nM] | IC50 [2] [nM] | SMILES |
| --- | --- | --- |
| 6310 | 251 | O=C(CCNCCc1nc2ccccc2[nH]1)N(CCNCCc1ccc(O)c2[nH]c(=O)sc12)C1CCCCC1 [Example 77, N^3-[2-(1H-Benzimidazol-2-yl)ethyl]-N^1-cyclohexyl-N^1-(2-{[2-(4-hydroxy-2-oxo-2,3-dihydro-1,3-benzothiazol-7-yl)ethyl]amino}ethyl)-β-alaninamide tris-trifluoroacetic acid salt] |
| 631 | 251 | O=C(CCNC[C@H](O)c1ccccc1)N(CCNCCc1ccc(O)c2[nH]c(=O)sc12)C1CCCCC1 [Example 75, N^1-Cyclohexyl-N^1-(2-{[2-(4-hydroxy-2-oxo-2,3-dihydro-1,3-benzothiazol-7-yl)ethyl]amino}ethyl)-N^3-[(2R)-2-hydroxy-2-phenylethyl]-β-alaninamide bis-trifluoroacetic acid salt] |
| 3160 | 63.1 | O=C(CCNCCc1cc(F)ccc1F)N(CCNCCc1ccc(O)c2[nH]c(=O)sc12)C1CCCCC1 [Example 79, N^1-Cyclohexyl-N^3-[2-(2,5-difluorophenyl)ethyl]-N^1-(2-{[2-(4-hydroxy-2-oxo-2,3-dihydro-1,3-benzothiazol-7-yl)ethyl]amino}ethyl)-β-alaninamide bis-trifluoroacetic acid salt] |
| 3980 | 200 | O=C(CCNCCc1cccc(O)c1)N(CCNCCc1ccc(O)c2[nH]c(=O)sc12)C1CCCCC1 [Example 71, N^1-Cyclohexyl-N^1-(2-{[2-(4-hydroxy-2-oxo-2,3-dihydro-1,3-benzothiazol-7-yl)ethyl]amino}ethyl)-N^3-[2-(3-hydroxyphenyl)ethyl]-β-alaninamide bis-trifluoroacetic acid salt] |
| 5010 | 63.1 | O=C(CCNCCc1cc(F)ccc1F)N(CCNCCc1ccc(O)c2[nH]c(=O)sc12)C1CCCCCC1 [Example 83, N^1-Cycloheptyl-N^3-[2-(2,5-difluorophenyl)ethyl]-N^1-(2-{[2-(4-hydroxy-2-oxo-2,3-dihydro-1,3-benzothiazol-7-yl)ethyl]amino}ethyl)-β-alaninamide bis-trifluoroacetic acid salt] |
| 1000 | 200 | CC(C)(CO)CN(CCNCCc1ccc(O)c2[nH]c(=O)sc12)C(=O)CCNCCc1cccc(Cl)c1Cl [Example 67, N^3-[2-(2,3-Dichlorophenyl)ethyl]-N^1-(3-hydroxy-2,2-dimethylpropyl)-N^1-(2-{[2-(4-hydroxy-2-oxo-2,3-dihydro-1,3-benzothiazol-7-yl)ethyl]amino}ethyl)-β-alaninamide bis-trifluoroacetic acid salt] |
| 3980 | 200 | COc1ccc(CCNCCC(=O)N(CCNCCc2ccc(O)c3[nH]c(=O)sc23)C2CCCCC2)cc1 [Example 68, N^1-Cyclohexyl-N^1-(2-{[2-(4-hydroxy-2-oxo-2,3-dihydro-1,3-benzothiazol-7-yl)ethyl]amino}ethyl)-N^3-[2-(4-methoxyphenyl)ethyl]-β-alaninamide bis-trifluoroacetic acid salt] |
